Earlier results in patent publication US20040002079A1.

Details: steady state, red cells vs plasma, different individuals

[Li] [lithium, Lithium]
lithium ratio [Li]cell/[Li]pl: 0.2 to 0.8
